# Measurements from US20250171438A1 (Agios Pharmaceuticals, Inc., priority 2022, published 2025).
# Target: T1, human PAH with the R408W mutation (Homo sapiens, UniProt P00439, R408W)
# T1 construct: expressed in transfected cells
# T1 sequence (P00439 1-452 R408W): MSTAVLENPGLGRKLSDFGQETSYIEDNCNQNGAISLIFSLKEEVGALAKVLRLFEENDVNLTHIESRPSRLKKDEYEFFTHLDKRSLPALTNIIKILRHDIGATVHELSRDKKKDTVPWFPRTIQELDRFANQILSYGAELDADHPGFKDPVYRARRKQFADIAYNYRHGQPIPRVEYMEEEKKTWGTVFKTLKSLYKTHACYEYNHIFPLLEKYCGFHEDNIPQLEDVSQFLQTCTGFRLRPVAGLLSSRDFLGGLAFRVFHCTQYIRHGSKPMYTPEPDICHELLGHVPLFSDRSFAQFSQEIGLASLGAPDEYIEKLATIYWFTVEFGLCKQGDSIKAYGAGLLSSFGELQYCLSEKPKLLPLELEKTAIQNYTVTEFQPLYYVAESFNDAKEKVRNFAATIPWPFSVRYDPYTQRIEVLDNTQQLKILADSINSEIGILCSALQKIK
# Experiment: Cell Based Phenylalanine Flux Assay
# Conditions: A375 cells expressing human R408W PAH; 24 hrs with compound; 13C-Tyrosine by LC-MS; average where tested multiple times; read-out: AC50
row,SMILES,AC50
1,O=C(C1CN(c2ccccn2)C1)N1CCc2[nH]cnc2C1c1nc2ccccc2s1 (centres unmarked) [listing 1 of 2 here],> 5 µM
2,CS(=O)(=O)N1CC(C(=O)N2CCc3[nH]cnc3C2c2nc3ccccc3s2)C1 (centres unmarked) [listing 1 of 2 here],> 5 µM
3,O=C(c1cnco1)N1CCCc2[nH]cnc2C1c1nc2ccccc2s1 (centres unmarked),> 5 µM
4,Cc1nc(CCN2CC(F)C2)oc1C(=O)N1CCc2[nH]cnc2C1c1nc2ccccc2s1 (centres unmarked) [listing 1 of 2 here],> 5 µM
5,Cc1nc(CCC2CC2)oc1C(=O)N1CCCc2[nH]cnc2C1c1nc2ccccc2s1 (centres unmarked),> 5 µM
6,COCCc1ncc(C(=O)N2CCc3[nH]cnc3C2c2nc3ccccc3s2)o1 (centres unmarked) [listing 1 of 2 here],> 5 µM
7,COCc1ncc(C(=O)N2CCc3[nH]cnc3C2c2nc3ccccc3s2)o1 (centres unmarked) [listing 1 of 2 here],> 5 µM
8,CS(=O)(=O)c1ncoc1C(=O)N1CCc2[nH]cnc2C1c1nc2ccccc2s1 (centres unmarked) [listing 1 of 2 here],> 5 µM
9,O=C(c1nnc(CCN2CC(F)C2)o1)N1CCc2[nH]cnc2C1c1nc2ccccc2s1 (centres unmarked) [listing 1 of 2 here],> 5 µM
10,O=C(c1nnc(CCN2CCOCC2)o1)N1CCc2[nH]cnc2C1c1nc2ccccc2s1 (centres unmarked) [listing 1 of 2 here],> 5 µM
11,O=C(c1nnc(CCCN2CC(F)C2)o1)N1CCc2[nH]cnc2C1c1nc2ccccc2s1 (centres unmarked) [listing 1 of 2 here],> 5 µM
12,O=C(c1nnc(CCCN2CCOCC2)o1)N1CCc2[nH]cnc2C1c1nc2ccccc2s1 (centres unmarked) [listing 1 of 2 here],> 5 µM
13,O=C(c1nnc(CCC(F)(F)F)o1)N1CCc2[nH]cnc2C1c1nc2ccccc2s1 (centres unmarked) [listing 1 of 2 here],> 5 µM
14,Cn1ncc(C(=O)N2CCc3[nH]cnc3C2c2nc3c(F)cccc3s2)c1Cl (centres unmarked) [listing 1 of 2 here],> 5 µM
15,Cn1ncc(C(=O)N2CCc3[nH]cnc3C2c2nc3c(F)cccc3s2)c1C#N (centres unmarked) [listing 1 of 2 here],> 5 µM
16,Cc1cc(C(=O)N2CCc3[nH]cnc3C2c2nc3c(F)cccc3s2)n(-c2ccc(F)cc2)n1 (centres unmarked) [listing 1 of 2 here],> 5 µM
17,O=C(c1ccn(-c2ccccn2)n1)N1CCc2[nH]cnc2C1c1nc2c(F)cccc2s1 (centres unmarked) [listing 1 of 2 here],> 5 µM
18,Cn1nc(-c2ccccn2)cc1C(=O)N1CCc2[nH]cnc2C1c1nc2c(F)cccc2s1 (centres unmarked) [listing 1 of 2 here],> 5 µM
19,COCc1cc(C(=O)N2CCc3[nH]cnc3C2c2nc3c(F)cccc3s2)n(C)n1 (centres unmarked) [listing 1 of 2 here],> 5 µM
20,NC(=O)c1ncoc1C(=O)N1CCc2[nH]cnc2C1c1nc2ccccc2s1 (centres unmarked) [listing 1 of 2 here],> 5 µM
21,N#Cc1nc(NCC(F)(F)F)oc1C(=O)N1CCc2[nH]cnc2C1c1nc2ccccc2s1 (centres unmarked) [listing 1 of 2 here],> 5 µM
22,Cn1nc(N)cc1C(=O)N1CCc2[nH]cnc2C1c1nc2c(F)cccc2s1 (centres unmarked) [listing 1 of 2 here],> 5 µM
23,Cn1nc(C#N)cc1C(=O)N1CCc2[nH]cnc2C1c1nc2c(F)cccc2s1 (centres unmarked) [listing 1 of 2 here],> 5 µM

row,SMILES,AC50
1,O=C(c1nnc(CCNC2CC2)o1)N1CCc2[nH]cnc2C1c1nc2ccccc2s1 (centres unmarked) [listing 1 of 2 here],> 5 µM
2,CN(C)CCc1nnc(C(=O)N2CCc3[nH]cnc3C2c2nc3ccccc3s2)o1 (centres unmarked) [listing 1 of 2 here],> 5 µM
3,Cc1nc(CCCN(C)C)oc1C(=O)N1CCc2[nH]cnc2C1c1nc2ccccc2s1 (centres unmarked) [listing 1 of 2 here],> 5 µM
4,CN(C)Cc1nc(C(=O)N2CCc3[nH]cnc3C2c2nc3ccccc3s2)no1 (centres unmarked) [listing 1 of 2 here],> 5 µM
5,O=C(C1CN(c2ccc(Cl)cc2)C1)N1CCc2[nH]cnc2C1c1nc2ccccc2s1 (centres unmarked),1 to 5 µM
6,O=C(C1CN(c2ccccn2)C1)N1CCc2[nH]cnc2C1c1nc2ccccc2s1 (centres unmarked) [listing 2 of 2 here],1 to 5 µM
7,CS(=O)(=O)N1CC(C(=O)N2CCc3[nH]cnc3C2c2nc3ccccc3s2)C1 (centres unmarked) [listing 2 of 2 here],1 to 5 µM
8,Cc1nc(CCN2CC(F)C2)oc1C(=O)N1CCc2[nH]cnc2C1c1nc2ccccc2s1 (centres unmarked) [listing 2 of 2 here],1 to 5 µM
9,COCCc1ncc(C(=O)N2CCc3[nH]cnc3C2c2nc3ccccc3s2)o1 (centres unmarked) [listing 2 of 2 here],1 to 5 µM
10,O=C(c1oc(C=CC2CC2)nc1C(F)(F)F)N1CCCc2[nH]cnc2C1c1nc2ccccc2s1 (centres unmarked),> 5 µM
11,COCc1ncc(C(=O)N2CCc3[nH]cnc3C2c2nc3ccccc3s2)o1 (centres unmarked) [listing 2 of 2 here],1 to 5 µM
12,Cn1nc(-c2ccc(Cl)cc2)cc1C(=O)N1CCc2[nH]cnc2C1c1nc2c(F)cccc2s1 (centres unmarked),1 to 5 µM
13,O=C(c1cc(Cl)n[nH]1)N1CCc2[nH]cnc2C1c1nc2c(F)cccc2s1 (centres unmarked),1 to 5 µM
14,COC1CN(C(=O)N2CCc3[nH]cnc3C2c2nc3ccccc3s2)C1 (centres unmarked),1 to 5 µM
15,Cc1noc(C(=O)N2CCc3[nH]cnc3C2c2nc3ccccc3s2)n1 (centres unmarked),1 to 5 µM
16,CS(=O)(=O)c1ncoc1C(=O)N1CCc2[nH]cnc2C1c1nc2ccccc2s1 (centres unmarked) [listing 2 of 2 here],1 to 5 µM
17,O=C(c1nnc(CCN2CC(F)C2)o1)N1CCc2[nH]cnc2C1c1nc2ccccc2s1 (centres unmarked) [listing 2 of 2 here],1 to 5 µM
18,O=C(c1nnc(CCN2CCOCC2)o1)N1CCc2[nH]cnc2C1c1nc2ccccc2s1 (centres unmarked) [listing 2 of 2 here],1 to 5 µM
19,O=C(c1nnc(CCCN2CC(F)C2)o1)N1CCc2[nH]cnc2C1c1nc2ccccc2s1 (centres unmarked) [listing 2 of 2 here],1 to 5 µM
20,O=C(c1nnc(CCCN2CCOCC2)o1)N1CCc2[nH]cnc2C1c1nc2ccccc2s1 (centres unmarked) [listing 2 of 2 here],1 to 5 µM
21,O=C(c1nnc(N2CC(F)C2)o1)N1CCc2[nH]cnc2C1c1nc2ccccc2s1 (centres unmarked),1 to 5 µM
22,O=C(c1nnc(C2CC(F)(F)C2)o1)N1CCc2[nH]cnc2C1c1nc2ccccc2s1 (centres unmarked),1 to 5 µM
23,O=C(c1nnc(CCC(F)(F)F)o1)N1CCc2[nH]cnc2C1c1nc2ccccc2s1 (centres unmarked) [listing 2 of 2 here],1 to 5 µM

row,SMILES,AC50
1,CN1CCN(c2nnc(C(=O)N3CCc4[nH]cnc4C3c3nc4ccccc4s3)o2)CC1 (centres unmarked),1 to 5 µM
2,COCc1nnc(C(=O)N2CCc3[nH]cnc3C2c2nc3ccccc3s2)o1 (centres unmarked),1 to 5 µM
3,Cn1ncc(C(=O)N2CCc3[nH]cnc3C2c2nc3c(F)cccc3s2)c1Cl (centres unmarked) [listing 2 of 2 here],1 to 5 µM
4,Cc1nc(C(=O)N2CCc3[nH]cnc3C2c2nc3ccccc3s2)no1 (centres unmarked),> 5 µM
5,O=C(C1CC1(F)F)N1CCc2[nH]cnc2C1c1nc2c(F)cccc2s1 (centres unmarked),1 to 5 µM
6,CC1(C)CN(C(=O)c2cnco2)C(c2nc3c(F)cccc3s2)c2nc[nH]c21 (centres unmarked),> 5 µM
7,N#Cc1n[nH]cc1C(=O)N1CCc2[nH]cnc2C1c1nc2ccccc2s1 (centres unmarked),1 to 5 µM
8,CN(C)CCn1cc(C(=O)N2CCc3[nH]cnc3C2c2nc3ccccc3s2)c(C#N)n1 (centres unmarked),1 to 5 µM
9,CN(C)CCn1ncc(C(=O)N2CCc3[nH]cnc3C2c2nc3ccccc3s2)c1C#N (centres unmarked),> 5 µM
10,Cn1ncc(C(=O)N2CCc3[nH]cnc3C2c2nc3c(F)cccc3s2)c1C#N (centres unmarked) [listing 2 of 2 here],1 to 5 µM
11,Cc1cc(C(=O)N2CCc3[nH]cnc3C2c2nc3c(F)cccc3s2)n(-c2ccc(F)cc2)n1 (centres unmarked) [listing 2 of 2 here],1 to 5 µM
12,O=C(c1ccn(-c2ccccn2)n1)N1CCc2[nH]cnc2C1c1nc2c(F)cccc2s1 (centres unmarked) [listing 2 of 2 here],1 to 5 µM
13,O=C(C1CN(c2ccccn2)C1)N1CCc2[nH]cnc2C1c1nc2c(F)cccc2s1 (centres unmarked),1 to 5 µM
14,Cn1nc(-c2ccccn2)cc1C(=O)N1CCc2[nH]cnc2C1c1nc2c(F)cccc2s1 (centres unmarked) [listing 2 of 2 here],1 to 5 µM
15,COCc1ncc(C(=O)N2CCc3[nH]cnc3C2c2nc3c(F)cccc3s2)o1 (centres unmarked),1 to 5 µM
16,COCc1cc(C(=O)N2CCc3[nH]cnc3C2c2nc3c(F)cccc3s2)n(C)n1 (centres unmarked) [listing 2 of 2 here],1 to 5 µM
17,O=C(c1nnc(-c2ccc(C(F)(F)F)cc2)o1)N1CCc2[nH]cnc2C1c1nc2c(F)cccc2s1 (centres unmarked),1 to 5 µM
18,CN(C)Cc1nc(C#N)c(C(=O)N2CCc3[nH]cnc3C2c2nc3ccccc3s2)o1 (centres unmarked),1 to 5 µM
19,COCCNc1nnc(C(=O)N2CCc3[nH]cnc3C2c2nc3ccccc3s2)o1 (centres unmarked),1 to 5 µM
20,NC(=O)c1ncoc1C(=O)N1CCc2[nH]cnc2C1c1nc2ccccc2s1 (centres unmarked) [listing 2 of 2 here],1 to 5 µM
21,N#Cc1nc(NCC(F)(F)F)oc1C(=O)N1CCc2[nH]cnc2C1c1nc2ccccc2s1 (centres unmarked) [listing 2 of 2 here],1 to 5 µM
22,Cc1nc(NC2CC2)oc1C(=O)N1CCCc2[nH]cnc2C1c1nc2ccccc2s1 (centres unmarked),> 5 µM
23,Cn1nc(N)cc1C(=O)N1CCc2[nH]cnc2C1c1nc2c(F)cccc2s1 (centres unmarked) [listing 2 of 2 here],1 to 5 µM

row,SMILES,AC50
1,Cn1nc(C#N)cc1C(=O)N1CCc2[nH]cnc2C1c1nc2c(F)cccc2s1 (centres unmarked) [listing 2 of 2 here],1 to 5 µM
2,O=C(c1nnc(CCNC2CC2)o1)N1CCc2[nH]cnc2C1c1nc2ccccc2s1 (centres unmarked) [listing 2 of 2 here],1 to 5 µM
3,CN(C)CCc1nnc(C(=O)N2CCc3[nH]cnc3C2c2nc3ccccc3s2)o1 (centres unmarked) [listing 2 of 2 here],1 to 5 µM
4,Cc1nc(CCCN(C)C)oc1C(=O)N1CCc2[nH]cnc2C1c1nc2ccccc2s1 (centres unmarked) [listing 2 of 2 here],1 to 5 µM
5,Cn1nc(CO)cc1C(=O)N1CCc2[nH]cnc2C1c1nc2c(F)cccc2s1 (centres unmarked),1 to 5 µM
6,CN(C)Cc1nc(C(=O)N2CCc3[nH]cnc3C2c2nc3ccccc3s2)no1 (centres unmarked) [listing 2 of 2 here],1 to 5 µM
7,CN(C)Cc1ncc(C(=O)N2CCc3[nH]cnc3C2c2nc3ccccc3s2)o1 (centres unmarked),1 to 5 µM
8,CN(C)Cc1cc(C(=O)N2CCc3[nH]cnc3C2c2nc3c(F)cccc3s2)n(C)n1 (centres unmarked),> 5 µM
9,COC(=O)N1CC(C(=O)N2CCc3[nH]cnc3C2c2nc3ccccc3s2)C1 (centres unmarked),1 to 5 µM
10,COC(=O)N1CC(C(=O)N2CCc3[nH]cnc3C2c2nc3c(F)cccc3s2)C1 (centres unmarked),1 to 5 µM
11,Cc1nc(C(C)(C)O)oc1C(=O)N1CC2(CC2)c2[nH]cnc2C1c1nc2ccccc2s1 (centres unmarked) [listing 1 of 2 here],> 5 µM
12,O=C(c1cnco1)N1CC2(CC2)c2[nH]cnc2C1c1nc2ccccc2s1 (centres unmarked) [listing 1 of 2 here],> 5 µM
13,Cc1nc(-c2ccccn2)oc1C(=O)N1CC2(CC2)c2[nH]cnc2C1c1nc2ccccc2s1 (centres unmarked),> 5 µM
14,COCc1ccc2c(C(=O)N3CC4(CC4)c4[nH]cnc4C3c3nc4ccccc4s3)cnn2c1 (centres unmarked) [listing 1 of 2 here],> 5 µM
15,Cc1ncoc1C(=O)N1CC2(CC2)c2[nH]cnc2C1c1nc2c(F)cccc2s1 (centres unmarked) [listing 1 of 2 here],> 5 µM
16,O=C(c1ocnc1CO)N1CC2(CC2)c2[nH]cnc2C1c1nc2ccccc2s1 (centres unmarked) [listing 1 of 2 here],> 5 µM
17,CN(C)Cc1ccc2c(C(=O)N3CC4(CC4)c4[nH]cnc4C3c3nc4ccccc4s3)cnn2c1 (centres unmarked) [listing 1 of 2 here],> 5 µM
18,Cc1nc(C(C)(C)O)oc1C(=O)N1CC2(CC2)c2[nH]cnc2C1c1nc2ccccc2s1 (centres unmarked) [listing 2 of 2 here],1 to 5 µM
19,O=C(c1cnco1)N1CC2(CC2)c2[nH]cnc2C1c1nc2ccccc2s1 (centres unmarked) [listing 2 of 2 here],1 to 5 µM
20,COCc1ccc2c(C(=O)N3CC4(CC4)c4[nH]cnc4C3c3nc4ccccc4s3)cnn2c1 (centres unmarked) [listing 2 of 2 here],1 to 5 µM
21,Cc1ncoc1C(=O)N1CC2(CC2)c2[nH]cnc2C1c1nc2c(F)cccc2s1 (centres unmarked) [listing 2 of 2 here],1 to 5 µM
22,O=C(c1ocnc1CO)N1CC2(CC2)c2[nH]cnc2C1c1nc2ccccc2s1 (centres unmarked) [listing 2 of 2 here],1 to 5 µM
23,CN(C)Cc1ccc2c(C(=O)N3CC4(CC4)c4[nH]cnc4C3c3nc4ccccc4s3)cnn2c1 (centres unmarked) [listing 2 of 2 here],1 to 5 µM
